Test results from patent publication US20250186423A1, “METHODS OF TREATING CANCER AND OTHER CONDITIONS WITH A MU OPIOID RECEPTOR ANTAGONIST” (priority 2022, published 2025).

Key:
[1] = tested on: blood vessels reaching MDA-MB-231 tumor on the CAM; assay: Chicken egg chorioallantoic membrane (CAM) tumor angiogenesis, blood vessel count; type: in vivo; settings: 0.1, 0.5, 1.0 mg/kg; absence of exogenous opioids
Experimental: Two independent model systems were used to explore the role of MOR and endogenous opioids on angiogenesis. Human umbilical vein endothelial cells (HUVEC) in culture initiate angiogenesis through tube formation when cultured on an appropriate extracellular matrix. In a living system, the chicken egg chorioallantoic membrane assay (CAM) allows direct visualization of new blood vessel formation.
Furthermore, a chicken egg chorioallantoic membrane assay was conducted to determine blood vessel formation in the presence of increasing MOR antagonist (axelopran) concentrations (0, 0.1, 0.5, 1.0 mg/kg). Docetaxel was used as a control. For the testing CAM membranes were incubated in the presence of the MOR antagonist or docetaxel under the following conditions: Fertilized White Leghorn eggs were incubated at 37.5° C. with 50% relative humidity for 9 days. At that moment (E9), the CAM was dropped down by drilling a small hole through the eggshell into the air sac, and a 1 cm window was cut in the eggshell above the CAM. At least 20 eggs (depending on embryo surviving rate after 9 days of development, there could be more than 20 eggs per group) were grafted for each group. […] The number of blood vessels that reach the tumor and feed the tumor proliferation were counted in triplicate to evaluate tumor angiogenesis. […]

Zebra fish larvae [2] = assay: Zebra fish larvae mortality in combination therapy study; type: in vivo, zebrafish
Experimental: (§1) The toxicity screening period covered the first 72 hours of development. The efficacy evaluation of Axelopran was made using M-001 melanoma cells and matching TILs. Two-day old zebrafish embryos were subcutaneously injected into the perivitelline space with approximately 700 M-001 cells labelled with Dil red fluorescent dye and intravenously injected with TILs with or without pembrolizumab antibody. At the same time, MOR-antagonist test doses were added to the water. Following an additional 72 hours of further development, the fish were assayed for tumor growth (size of original tumor implant) and metastasis disseminated to the distal caudal venous plexus (CVP) three days after implantation.
For study investigating combination therapy, the Zebra fish larvae mortality was also investigated.

Zebra fish larvae [3] = assay: Zebra fish larvae toxicity screen; type: in vivo, zebrafish; settings: doses up to 100 μM in incubation water
Experimental: Transgenic Tg(fli1: EGFP)y1 zebrafish embryos were used for these studies. The results of this testing are shown in FIG. 4A and FIG. 4B, which show Zebra fish larvae survival up to 72 hours in the presence of increasing axelopran concentration in the incubation water.
Based on the toxicity screening, for tumor progression analysis, doses up to 10 μM were utilized.
as §1

M-001 melanoma cells [4] = assay: Melanoma tumor progression in Zebra fish larvae; type: in vivo, zebrafish; settings: for Melanoma tumor progression index (tumor size × metastasis), Mean: 72 hours of growth
Experimental: Zebra fish larvae (FIG. 3A) allow direct visualization of injected tumor cell growth and metastasis (collectively tumor progression) using fluorescently label tumor cells. At this developmental stage both the zebra fish immune system and gut microbiome are immature or lacking. Co-injection of exogenous tumor infiltrating lymphocytes (ex-TILS) allows the separate study of immune surveillance in the absence of a microbiome.
as §1
The testing described above was repeated studying the effects of various doses of axelopran (0, 50 nM, 100 nM, 500 nM, and 1000 nM) alone, pembrolizumab alone, or pembrolizumab in combination with axelopran. The results of this testing are shown in FIG. 7, which depicts a summary of melanoma tumor progression (tumor size×#metastasis) in the presence of increasing axelopran concentrations or the checkpoint inhibitor pembrolizumab. For experiments using pembrolizumab, exogenous tumor-infiltrating lymphocytes (TILs) were also injected. The additional controls included the effect of TILs alone and with axelopran (500 nM) and pembrolizumab and TILs alone and with axelopran (500 nM). *=<0.05, **=<0.005, ***=<0.0005.

M-001 melanoma cells [5] = assay: Melanoma tumor progression in Zebra fish larvae; type: in vivo, zebrafish; settings: Axelopran 10000 nM, 72 hours of growth
[6] = tested on: Mouse colon cancer (MC38) cells; assay: Syngeneic mouse colon cancer model; type: in vivo, mice (C57BL6)
Experimental: The syngeneic mouse model assay (FIG. 3B) allows a complete system where tumor progression is quantified in the presence of endogenous immune surveillance and an active gut microbiome.
Mouse colon cancer (MC38) cells were amplified in vitro prior to implantation. On the day of injection, cells were harvested, counted including a trypan blue viability dye (cut-off 80%), and resuspended in PBS at the appropriate concentration. The cells were injected subcutaneously in the right flank of Female mice (C57BL6), 5 weeks of age (18-22 gm body weight) at 5.106 cells/mouse in 200 μL PBS within 30 minutes after harvesting. After 15-18 days of tumor growth, mice were randomized into treatment groups at 10 animals/group. Animals were weighed thrice weekly and tumor growth measured using callipers. The tumour volume (TV) was extrapolated to a sphere using the formula shown below: […]
by calculating the mean radius from the two measurements.
The results of these studies are shown in FIG. 12A, 12B, 13 as well as Table 2-3. The tumor growth curves in animals treated with the MOR antagonist, axelopran, mouse anti-PD-1 or a combination of both treatments are shown in FIGS. 12A and 12B. FIG. 12A and FIG. 12B show MC38 colon cancer tumor growth in syngeneic mice treated with Vehicle (Control), axelopran (1 mg/kg, p.o. daily), mouse anti-PD-1 (12.5 mg/kg i.p.,3×-weekly) or axelopran plus anti-PD-1.

[7] = absence of exogenous opioids, melanoma

In the case of `NC(=O)c1cccc(C2CC3CCC(C2)N3CCN(CC2CCCCC2)C(=O)[C@@H](O)CO)c1` (stereo partly drawn) [axelopran, 3-[(1R,3r,5S)-8-(2-{(cyclohexylmethyl)[(2S)-2,3-dihydroxypropanoyl]amino}ethyl)-8-azabicyclo[3.2.1]octan-3-yl]benzamide], the “angiogenesis (blood vessel formation, CAM)” value [1] is reported as “inhibit angiogenesis”, the “Zebra fish larvae mortality” value (Zebra fish larvae [2]; axelopran added with TILS and TILS plus pembrolizumab) is reported as “significantly reduced this mortality” and the “Zebra fish larvae mortality” value (Zebra fish larvae [2]; axelopran alone, 72-hour period after exposure at 48 hours post-fertilization) is reported as “no significant mortality”. For the same compound, the abnormal pathology (Zebra fish larvae [3]) was “limited abnormal pathology”, the larvae death (Zebra fish larvae [3]) was “did not result in larvae death” and the “survival and development of pathological lesions” value (Zebra fish larvae [3]; up to 72 hours) was “no different that the vehicle control”. The metastasis (M-001 melanoma cells [4]; 10 μM axelopran vs vehicle control) was “significantly reduced metastasis”, the “Melanoma tumor progression index (tumor size × metastasis), Mean” value (“Melanoma tumor progression index” below) (M-001 melanoma cells [4]; Axelopran 100 nM) was 5.71 and the “Melanoma tumor progression index” value (M-001 melanoma cells [4]; Axelopran 500 nM +TILS) was 2.73. For the same compound, the “Melanoma tumor progression index” value (M-001 melanoma cells [4]; Axelopran 500 nM) was 3.62, the “Melanoma tumor progression index” value (M-001 melanoma cells [4]; Axelopran 1000 nM) was 1.85 and the “interaction of axelopran activity with anti-PD-1 treatment” value (M-001 melanoma cells [4]; absence of a microbiome, melanoma) was “additive”. The metastasis (M-001 melanoma cells [4]; [7]) was “inhibits metastasis”, the tumor growth (M-001 melanoma cells [4]; [7]) was “inhibits tumor growth” and the “Melanoma tumor progression index” value (M-001 melanoma cells [5]) was 2.41. For the same compound, the “Tumor Size @ day 13, Mean” value ([6]; axelopran 1 mg/kg p.o. daily, mouse anti-PD-1 12.5 mg/kg i.p. 3×-weekly) was 1,479 mm^3, the “Survival, Median” value ([6]; axelopran 1 mg/kg, anti-PD-1) was 13.0 days and the “Growth Rate, Mean” value ([6]; initial 8 days of treatments, axelopran 1 mg/kg p.o. daily, mouse anti-PD-1 12.5 mg/kg i.p.) was 84.5 mm^3/day. The “interaction of axelopran activity with anti-PD-1 treatment” value ([6]; presence of a microbiome, colon cancer) was “synergistic”.
